The results in this text go back to ChEMBL document CHEMBL2074445, “Effect of organic isothiocyanates on the P-glycoprotein- and MRP1-mediated transport of daunomycin and vinblastine” (Pharm Res, 2002).

Holding throughout (format): functional, cell-based
Data set [1] deals with T1, ATP-dependent translocase ABCB1 (Homo sapiens, UniProt P08183). Kind of data set: TP_TRANSPORTER: increase in Daunomycin intracellular accumulation (Daunomycin: 0.05 uM, NITC: 100 uM) in MCF-7 ADR cells. The following applies: nci/adr-res.
T1 sequence (P08183 whole entry): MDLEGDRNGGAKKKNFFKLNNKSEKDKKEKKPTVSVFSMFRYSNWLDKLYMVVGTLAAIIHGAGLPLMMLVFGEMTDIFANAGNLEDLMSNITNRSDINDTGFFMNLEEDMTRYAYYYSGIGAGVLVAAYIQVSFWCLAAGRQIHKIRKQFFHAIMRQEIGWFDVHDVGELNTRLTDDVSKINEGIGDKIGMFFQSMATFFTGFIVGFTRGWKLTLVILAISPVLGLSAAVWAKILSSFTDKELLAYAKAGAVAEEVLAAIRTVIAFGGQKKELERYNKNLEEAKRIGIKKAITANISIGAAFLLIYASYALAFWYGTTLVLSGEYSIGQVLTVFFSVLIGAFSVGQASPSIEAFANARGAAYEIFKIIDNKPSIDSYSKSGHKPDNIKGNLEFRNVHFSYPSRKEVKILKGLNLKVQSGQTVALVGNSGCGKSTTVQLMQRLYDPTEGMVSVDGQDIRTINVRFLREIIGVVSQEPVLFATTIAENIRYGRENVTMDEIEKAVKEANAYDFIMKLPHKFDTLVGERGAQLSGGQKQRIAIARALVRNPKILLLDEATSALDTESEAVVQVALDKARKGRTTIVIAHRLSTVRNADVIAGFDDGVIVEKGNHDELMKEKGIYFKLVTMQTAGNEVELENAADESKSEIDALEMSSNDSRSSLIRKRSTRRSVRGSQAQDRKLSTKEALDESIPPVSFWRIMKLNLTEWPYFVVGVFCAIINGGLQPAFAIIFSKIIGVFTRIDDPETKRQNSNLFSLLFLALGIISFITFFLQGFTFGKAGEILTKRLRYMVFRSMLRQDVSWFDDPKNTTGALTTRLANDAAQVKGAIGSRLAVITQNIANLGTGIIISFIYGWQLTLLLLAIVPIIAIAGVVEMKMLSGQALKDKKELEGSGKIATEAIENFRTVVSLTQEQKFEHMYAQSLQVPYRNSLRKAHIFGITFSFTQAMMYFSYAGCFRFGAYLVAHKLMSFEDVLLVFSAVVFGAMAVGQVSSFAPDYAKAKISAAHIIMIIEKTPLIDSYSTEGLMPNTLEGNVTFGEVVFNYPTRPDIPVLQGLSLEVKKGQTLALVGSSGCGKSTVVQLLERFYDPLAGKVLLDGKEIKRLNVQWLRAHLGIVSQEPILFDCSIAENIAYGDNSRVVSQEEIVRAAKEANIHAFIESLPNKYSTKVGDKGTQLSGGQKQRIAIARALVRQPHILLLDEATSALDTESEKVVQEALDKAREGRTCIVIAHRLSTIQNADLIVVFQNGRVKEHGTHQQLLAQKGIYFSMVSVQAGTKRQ
In data set [2] the target is T2, Multidrug resistance-associated protein 1 (Homo sapiens, UniProt P33527). The data set can be described thus: TP_TRANSPORTER: increase in Daunomycin intracellular accumulation (Daunomycin: 0.05 uM, NITC: 100 uM) in PANC-1 cells. As to conditions: panc-1, 100 µM.
T2 sequence (P33527 whole entry): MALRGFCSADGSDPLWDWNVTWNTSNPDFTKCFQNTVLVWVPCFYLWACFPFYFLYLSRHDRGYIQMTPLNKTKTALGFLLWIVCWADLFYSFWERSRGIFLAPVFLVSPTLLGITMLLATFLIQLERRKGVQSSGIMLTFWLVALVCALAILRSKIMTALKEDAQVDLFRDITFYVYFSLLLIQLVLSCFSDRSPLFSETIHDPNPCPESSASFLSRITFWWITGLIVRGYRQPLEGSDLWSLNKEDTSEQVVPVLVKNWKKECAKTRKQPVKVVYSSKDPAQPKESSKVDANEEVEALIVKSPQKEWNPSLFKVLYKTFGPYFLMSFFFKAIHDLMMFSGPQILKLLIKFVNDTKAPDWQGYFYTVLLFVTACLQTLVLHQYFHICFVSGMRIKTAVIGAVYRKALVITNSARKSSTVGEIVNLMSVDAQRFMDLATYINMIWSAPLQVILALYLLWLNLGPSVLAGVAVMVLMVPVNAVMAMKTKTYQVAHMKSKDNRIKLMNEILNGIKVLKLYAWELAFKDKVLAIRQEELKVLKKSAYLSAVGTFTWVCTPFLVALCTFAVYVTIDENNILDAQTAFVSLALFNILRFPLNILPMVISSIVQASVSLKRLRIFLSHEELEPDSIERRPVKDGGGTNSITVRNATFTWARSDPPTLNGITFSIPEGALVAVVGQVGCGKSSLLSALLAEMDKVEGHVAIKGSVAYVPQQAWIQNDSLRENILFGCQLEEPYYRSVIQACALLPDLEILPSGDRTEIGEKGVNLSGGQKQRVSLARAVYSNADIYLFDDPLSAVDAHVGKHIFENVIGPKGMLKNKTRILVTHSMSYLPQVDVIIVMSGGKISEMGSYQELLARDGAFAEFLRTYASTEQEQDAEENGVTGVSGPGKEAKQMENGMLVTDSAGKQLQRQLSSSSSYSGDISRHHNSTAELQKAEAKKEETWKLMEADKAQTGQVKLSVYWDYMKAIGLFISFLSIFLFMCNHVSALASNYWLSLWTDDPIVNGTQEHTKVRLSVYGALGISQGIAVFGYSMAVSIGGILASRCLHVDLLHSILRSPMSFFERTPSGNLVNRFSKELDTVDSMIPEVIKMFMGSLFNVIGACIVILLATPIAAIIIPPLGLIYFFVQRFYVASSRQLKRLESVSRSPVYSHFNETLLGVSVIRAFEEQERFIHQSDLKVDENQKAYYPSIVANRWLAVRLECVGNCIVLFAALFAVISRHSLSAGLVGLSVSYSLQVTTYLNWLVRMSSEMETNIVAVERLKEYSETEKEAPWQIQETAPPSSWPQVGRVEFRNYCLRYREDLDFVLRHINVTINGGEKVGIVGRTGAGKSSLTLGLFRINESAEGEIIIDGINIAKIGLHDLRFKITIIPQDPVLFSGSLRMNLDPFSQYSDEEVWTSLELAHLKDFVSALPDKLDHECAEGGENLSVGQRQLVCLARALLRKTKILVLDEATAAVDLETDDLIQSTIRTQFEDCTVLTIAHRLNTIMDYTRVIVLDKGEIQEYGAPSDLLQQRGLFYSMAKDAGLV
For data set [3], the target named is T1, ATP-dependent translocase ABCB1. The data set can be described thus: TP_TRANSPORTER: increase in Daunomycin intracellular accumulation (Daunomycin: 0.05 uM, Benzylisothiocyanate: 100 uM) in MCF-7/ADR cells. As to conditions: nci/adr-res.
Data set [4] concerns the target T2, Multidrug resistance-associated protein 1. Kind of data set: TP_TRANSPORTER: increase in Daunomycin intracellular accumulation (Daunomycin: 0.05 uM, Phenylhexyl isothiocyanate: 100 uM) in PANC-1 cells. The following applies: panc-1, 100 µM.
The target is the same in data set [5]. Kind of data set: TP_TRANSPORTER: increase in Vinblastine intracellular accumulation (Vinblastine: 0.05 uM, Phenylbutyl isothiocyanate: 100 uM) in PANC-1 cells. As to conditions: panc-1, 100 µM.
Data set [6] has the same target. Kind of data set: TP_TRANSPORTER: increase in Vinblastine intracellular accumulation (Vinblastine: 0.05 uM, Phenylhexyl isothiocyanate: 100 uM) in PANC-1 cells. As to conditions: panc-1, 100 µM.
Data set [7] concerns the target T1, ATP-dependent translocase ABCB1. The data set can be described thus: TP_TRANSPORTER: increase in Vinblastine intracellular accumulation ([…], Phenylhexyl isothiocyanate: 100 uM) in MCF-7/ADR cells. As to conditions: nci/adr-res.

Consider `S=C=Nc1cccc2ccccc12` [1-NAPHTHYLISOTHIOCYANATE], for which the Activity in data set [1] amounted to 4 fold; in data set [2], 3 fold. Molecule `S=C=NCc1ccccc1` [BENZYL ISOTHIOCYANATE] showed an Activity in data set [3] of 2.5 fold.

The molecule `S=C=NCCc1ccccc1` [PHENETHYLISOTHIOCYANATE] showed an Activity in data set [4] of 2 fold. `S=C=NCCCCc1ccccc1` [PHENYLBUTYL ISOTHIOCYANATE] had an Activity in data set [5] of 2.5 fold.

For the molecule `S=C=NCCCCCCc1ccccc1` [PHENYLHEXYL ISOTHIOCYANATE], the Activity is given as 3 fold in data set [6] and 10 fold in data set [7].
